Molecular target: Melanocortin receptor 4 (Homo sapiens, UniProt P32245)
Test: Inhibition of [125I]-NDP MSH binding to human Melanocortin 4 receptor

Sequence of Melanocortin receptor 4 (P32245 whole entry): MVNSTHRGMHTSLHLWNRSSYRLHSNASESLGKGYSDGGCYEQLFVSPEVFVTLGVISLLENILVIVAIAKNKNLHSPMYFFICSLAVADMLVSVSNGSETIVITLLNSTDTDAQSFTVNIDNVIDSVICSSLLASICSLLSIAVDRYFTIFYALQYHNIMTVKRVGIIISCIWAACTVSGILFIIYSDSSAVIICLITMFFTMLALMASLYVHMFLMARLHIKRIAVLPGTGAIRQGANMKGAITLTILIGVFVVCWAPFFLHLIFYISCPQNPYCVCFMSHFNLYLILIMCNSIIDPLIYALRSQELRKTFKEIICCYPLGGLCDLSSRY

CCN(CC)CC(CCCc1ccccc1)N1CCN(C)CC1 (configuration not stated)
Ki: 110 nM

CCN(CC)CC(c1cccc(C(F)(F)F)c1)N1CCN(C)CC1 (configuration not stated)
Ki: 150 nM

CC(c1ccccc1)N1CCN(C)CC1 (configuration not stated)
Ki: 700 nM

CCN(CC)CC(CCc1ccccc1)N1CCN(C)CC1 (configuration not stated)
Ki: 130 nM

CCN(CC)CC(c1ccc(F)cc1F)N1CCN(C)CC1 (configuration not stated)
Ki: 100 nM

COC(=O)NCC(c1ccccc1F)N1CCN(C)CC1 (configuration not stated)
Ki: 483 nM

CCN(CC(c1ccccc1F)N1CCN(C)CC1)C(C)=O (configuration not stated)
Ki: 106 nM

CCN(CC)C[C@H](c1ccccc1)N1CCN(C)CC1
Ki: 190 nM

CCN(CC)C(=O)C(c1ccccc1F)N1CCN(C)CC1 (configuration not stated)
Ki: 125 nM

CCN(CC)CC(c1ccccc1Cl)N1CCN(C)CC1 (configuration not stated)
Ki: 70 nM

CCN(CC)CC(c1ccccc1C)N1CCN(C)CC1 (configuration not stated)
Ki: 70 nM

CCN(CC)CC(c1ccccc1F)N1CCN(C)CC1 (configuration not stated)
Ki: 20 nM

CN1CCN(C(CNS(C)(=O)=O)c2ccccc2F)CC1 (configuration not stated)
Ki: 472 nM

CCN(CC(c1ccccc1F)N1CCN(C)CC1)C(=O)OC (configuration not stated)
Ki: 261 nM

CCN(CC(c1ccccc1F)N1CCN(C)CC1)S(C)(=O)=O (configuration not stated)
Ki: 157 nM

CC(=O)NCC(c1ccccc1F)N1CCN(C)CC1 (configuration not stated)
Ki: 467 nM

CCN(CC)CC(c1ccc(C(F)(F)F)cc1)N1CCN(C)CC1 (configuration not stated)
Ki: 200 nM

CCN(CC)CC(c1c(F)cccc1F)N1CCN(C)CC1 (configuration not stated)
Ki: 150 nM

CCN(CC)C[C@@H](c1ccccc1F)N1CCN(C)CC1
Ki: 111 nM

CN1CCN(Cc2ccccc2)CC1
Ki: 2000 nM

CCN(CC)CC(c1ccccc1C(F)(F)F)N1CCN(C)CC1 (configuration not stated)
Ki: 40 nM

CCN(CC)CC(c1ccccc1OC)N1CCN(C)CC1 (configuration not stated)
Ki: 190 nM

CCN(CC)CC(Cc1ccccc1)N1CCN(C)CC1 (configuration not stated)
Ki: 40 nM

CCN(CC)C[C@@H](c1ccccc1)N1CCN(C)CC1
Ki: 50 nM

CCN(CC)C[C@H](c1ccccc1F)N1CCN(C)CC1
Ki: 14 nM

CCN(CC)Cc1ccccc1N1CCN(C(=O)[C@@H](Cc2ccc(Cl)cc2)NC(=O)[C@H]2Cc3ccccc3CN2)CC1
Ki: 14 nM

CCN(CC)CC(c1ccccc1)N1CCN(C)CC1 (configuration not stated)
Ki: 90 nM

Reference: ChEMBL document CHEMBL1143496, “Privileged structure based ligands for melanocortin receptors--substituted benzylic piperazine derivatives” (Bioorg Med Chem Lett, 2005)
